Reference: patent publication US20240199535A1, “DEUTERATED DHODH INHIBITORS” (priority 2021, published 2024)

Test system: SARS-CoV-2
Assay: Antiviral activity on SARS-CoV-2, viral replication (YFP) assay
Type: cell-based
Details: Severe acute respiratory syndrome coronavirus 2, read-out: EC50 range

| Structure (SMILES) | EC50 [µM] |
| --- | --- |
| [2H]C([2H])([2H])Oc1cccc(-c2c(F)c(F)c(NC(=O)C3=C(C(=O)O)CCC3)c(F)c2F)c1 [1/2] | < 10 |
| [2H]C([2H])([2H])C([2H])([2H])Oc1cccc(-c2cc(F)c(NC(=O)C3=C(C(=O)O)CCC3)c(F)c2)c1 [1/3] | < 10 |
| [2H]C([2H])([2H])Oc1ccccc1-c1cc(F)c(NC(=O)C2=C(C(=O)O)CCC2)c(F)c1 [1/4] | < 10 |
| [2H]c1c([2H])c(F)c([2H])c(-c2cc(F)c(NC(=O)C3=C(C(=O)O)CCC3)c(F)c2)c1[2H] [1/7] | < 10 |
| [2H]C([2H])([2H])Oc1nc(-c2cc(F)c(NC(=O)C3=C(C(=O)O)CCC3)c(F)c2)cs1 [1/8] | 25 to 50 |
| [2H]C([2H])([2H])Oc1cc(-c2cc(F)c(NC(=O)C3=C(C(=O)O)CCC3)c(F)c2)ccn1 [1/9] | 25 to 50 |
| [2H]C([2H])([2H])Oc1cccc(-c2cc(F)c(NC(=O)C3=C(C(=O)O)CCC3)c(F)c2)n1 [1/10] | 10 to 25 |
| [2H]C([2H])([2H])Oc1cccc(-c2ccc(NC(=O)C3=C(C(=O)O)CCC3)c3cnccc23)c1 [12/3] | 25 to 50 |
| [2H]C([2H])([2H])Oc1cccc(-c2ccc(NC(=O)C3=C(C(=O)O)CCC3)c3ccccc23)c1 [12/4] | 10 to 25 |
